Publication PMC3835742, “Lack of Plasma Kallikrein-Kinin System Cascade in Teleosts” (PLoS ONE, 2013)
Entries after “also recorded” stand apart in the source; their conditions may differ.

Assays:
[1] = Degradation rate of [Arg^0]-BK in plasma in vitro; format: in vitro ADME, Japanese eel; conditions: plasma with inhibitor cocktail (1,10-phenanthroline, potassium EDTA, aprotinin), spiked 3,000 fmol/mL, 25 °C, 0, 10 and 30 min, Sep-Pak extraction, RIA read-out, n = 3, Student t-test p > 0.05
Procedure: (§1) Juvenile, sexually immature Japanese eel (Anguilla japonica; 160 - 220 g), tilapia (Oreochromis niloticus; 50 - 100g), rainbow trout (Oncorhynchus mykiss; 100 - 200 g), and adult medaka of both sex (Oryzias latipes; 1.5 - 2.2 g) were kept in a freshwater recirculating aquarium system in the Atmosphere and Ocean Research Institute, the University of Tokyo. The water was maintained at 12 °C for trout, 18 °C for eel, 25 °C for tilapia, and 27 °C for medaka, and all animals were exposed to a 14/10 h light/dark cycle throughout the experiment. All animal experimental procedures were approved by the Animal Experiment Committee of the University of Tokyo. Fish were anesthetized by 0.1% ethyl 3-aminobenzoate methanesulfonate (Sigma, St. Louis, MO) neutralized with sodium bicarbonate. […]
(§2) To test the degradation rate of [Arg^0]-BK in plasma in vitro, 3 blood samples with inhibitor cocktail were prepared. […] The immunoreactive (ir)-[Arg^0]-BK was measured using the newly established RIA. […] The concentration of [Arg^0]-BK in the HPLC fractions were measured to determine the percentage recovery. Synthetic [Trp^5, Leu^8]-BK (BK) and [Arg^0, Trp^5, des-Leu^8, des-Arg^9]-bradykinin were serially diluted in RIA buffer and measured by RIA to determine the cross-reactivities among these closely related peptides.

[2] = Spiking of pooled plasma, Sep-Pak/HPLC extraction and RIA (recovery and integrity); parameters: species or system Japanese eel; conditions: pooled eel plasma with inhibitor cocktail spiked to 300, 1000, 3000 fmol/mL, ir-BK profile by RIA
Procedure: as §1, with “Tokyo.” for “Tokyo. Fish were anesthetized by 0.1% ethyl 3-aminobenzoate methanesulfonate (Sigma, St. Louis, MO) neutralized with sodium bicarbonate.”
The plasma samples were purified by Sep-Pak C18 cartridge, with equilibration buffer (100 mM Tris-HCl, 0.5 M NaCl, pH 7.4) for binding and absolute methanol for elution. The partially purified plasma was further resolved by a reverse-phase HPLC system (Tosoh PU-980, Tokyo) attached to a UV-absorbance detector (Tosoh, UV-970, Tokyo) and utilizing an analytical column (ODS 100S column, 4.6 mm I.D. x 25 cm, C-18, 5 μm particle size, Tosoh, Tokyo). […]
To test the degradation rate of [Arg^0]-BK in plasma in vitro, 3 blood samples with inhibitor cocktail were prepared. […] The immunoreactive (ir)-[Arg^0]-BK was measured using the newly established RIA. […]

[3] = tested on: eel; conditions: compared with BK, ref [14]; cited from earlier work
[4] = tested on: polyclonal antiserum for [Arg^0]-BK; test: Radioimmunoassay (RIA) for [Arg^0, Trp^5, Leu^8]-bradykinin; format: binding, rabbit; conditions: for crossreactivity in the RIA: relative to [Arg^0]-BK standard, peptides serially diluted in RIA buffer, antiserum 1:10,000, 4 °C, 24 h
Procedure: [Arg^0, Trp^5, Leu^8]-bradykinin ([Arg^0]-BK: RRPPGWSPLR) was synthesized by Phoenix Pharmaceuticals Inc. (Burlingame, CA, USA). [Arg^0]-BK was N-terminally conjugated to thyroglobulin by the glutaraldehyde method. Briefly, 5 mg thyroglobulin was mixed with 1 mg [Arg^0]-BK in 4 mL PBS (pH 7.0) and glutaraldehyde was added to a final concentration of 0.05 %. The mixture was incubated at 25 °C for 1 h with gentle agitation and reaction was stopped by addition of 0.1 mL ethanolamine. The mixture was dialyzed against 1 L PBS overnight at 4 °C and protein concentration was determined. For each injection, 0.2 mg conjugated protein was used and three rabbits were first immunized with the conjugated protein in Freund’s complete adjuvant followed by two booster immunogen injections in Freund’s incomplete adjuvant. The interval between injections was 4 weeks and the rabbits were sacrificed for final bleeds 3 weeks after the third immunization.
Synthetic [Tyr^-1, Arg^0, Trp^5, Leu^8]-bradykinin (YRRPPGWSPLR) was radiolabeled by ^125I using the lactoperoxidase method and the iodinated peptide was purified by an HPLC system. The ^125I-BK was diluted in RIA buffer containing 0.1% RIA-grade bovine serum albumin to produce ~10,000 cpm per assay tube. The titers of the antiserum were determined by serial dilution and maximum binding was adjusted at 20 % of the total binding. […] Unbound fractions were removed by aspiration and specific binding in the pellet was measured using a gamma counter (Perkin Elmer, MA, USA). […]
as §2

Substance	ir-[Arg^0]-BK content after incubation in plasma [1]	integrity of spiked [Arg^0]-BK in plasma (conversion to BK) [2]	potency in eliciting cardiovascular and antidipsogenic effects [3]	EC50 ([4]; displacement of 125I-[Tyr^-1, Arg^0, Trp^5, Leu^8]-bradykinin tracer, antiserum 1:10,000, 4 °C for 24 h, gamma counter, measurements in duplicate) [nM]	crossreactivity in the RIA [4]
RRPPGWSPLR [[Arg^0]-BK, [Arg^0, Trp^5, Leu^8]-bradykinin, synthetic teleost decapeptide kinin, […], from Phoenix Pharmaceuticals]	did not alter the peptide contents; also recorded: not statistically different among various time points	remained as a single ir-peak; also recorded: remained intact	more potent than BK	0.55	–
[Arg^0, Trp^5, des-Leu^8, des-Arg^9]-bradykinin [[Arg^0, Trp^5, des-Leu^8, des-Arg^9]-BK]	–	–	–	–	negligible crossreactivity
[Trp^5, Leu^8]-BK	–	–	–	–	71.3%
